Laboratory results reported in publication PMC6562844, “A Basic Study of Photodynamic Therapy with Glucose-Conjugated Chlorin e6 Using Mammary Carcinoma Xenografts” (Cancers, 2019).
Values after ≈ are worked out from the molar mass of the structure shown. Read-outs that look alike come from different tables or passages of the source.

How the values were obtained:
SNP cells [1] = experiment: Reactive oxygen species assay (Muse Oxidative Stress kit); type: cell-based, canine; conditions: 8 μg/mL, 4 h after PDT
Experimental: SNP cells were seeded at a density of 5 × 10^4 cells/well in 35-mm petri dishes containing 2 mL culture medium. Following 24 h of incubation, the cells were divided into the following groups: control (no treatment); laser (irradiated with a light dose of 15 J/cm^2); G-Ce6 (treated with 8 μg/mL G-Ce6); and PDT (treated with 8 μg/mL G-Ce6, and then irradiated with a light dose of 1, 5, or 15 J/cm^2).
Reactive oxygen species (ROS) generation was assessed 4 h after laser irradiation using the Muse Oxidative Stress kit (EMD Millipore Co.), according to the manufacturer’s protocols; this kit determines the percentage of cells that are negative (healthy cells) and positive for ROS (cells containing ROS).
Single-cell suspensions were then loaded onto the Muse Cell Analyzer (EMD Millipore Co.).

SNP cells [2] = experiment: Photodynamic cytotoxicity in SNP cells (Cell Counting Kit-8); type: cell-based, canine; conditions: 650-nm laser, 1 J/cm^2, data not shown
[3] = Pharmacokinetics after intravenous administration in healthy dogs; type: in vivo; conditions: beagle, dog, plasma, i.v.; for Vd: read-out: Vdss
Experimental: The animal protocol using healthy beagle dogs was approved by the Animal Research Committee of the Tottori University (project number: 17-T-3). For the pharmacokinetic crossover study, 6, 3, and 1 healthy beagle dogs were intravenously administered G-Ce6 at a dose of 2, 5, and 20 mg/kg, respectively. The ages of the healthy dogs (3 males and 3 females) ranged from 6–12 years old (mean and median, 8.6 and 7.5 years, respectively); the dogs weighed 8.7–11.2 kg (mean and median, 10.2 and 10.5 kg, respectively).
The volume of G-Ce6 required to achieve the desired doses was diluted with 0.5% saline to obtain a total injection volume of 10 mL. The full injection volume was intravenously administered over 10 min at a rate of 60 mL/h using an appropriate syringe pump.
Blood samples were collected at 0, 10, and 30 min, and 1, 3, 6, and 24 h after the end of G-Ce6 injection. The samples were mixed with heparin in plastic tubes and centrifuged at 600 × g for 5 min at 4 °C; 0.2 mL of plasma from each centrifuged sample was transferred to Eppendorf tubes. The collected plasma samples were kept in the dark to avoid light exposure until assay initiation. For fluorescence measurement, plasma was read on a Fluorescence Spectrometer SH-9000Lab (excitation, 405 nm and emission, 665 nm; Hitachi High-Technologies Co., Tokyo, Japan). The concentration of G-Ce6 was determined by comparison with appropriate standards. The concentrations of G-Ce6 in the plasma were fitted to a two-compartment model and analyzed with a pharmacokinetic analysis program (http://www.pharm.kyoto-u.ac.jp/byoyaku/Kinetics/download.html). The pharmacokinetic parameters were calculated as follows: half-life (T1/2) = ln 2/β, where β is the slope of the elimination phase; volume of distribution at steady state (Vdss) = dose (A/α^2 + B/β^2)/((A/α) + (B/β))^2, where A and B are the intercepts of the distribution and elimination phases, respectively; α is the slope of the distribution phase; and clearance (CL) = dose/AUC, where AUC is the area under the curve, which was calculated using the trapezoidal method.

SNP cells [4] = experiment: Photodynamic cytotoxicity in SNP cells (Cell Counting Kit-8); type: cell-based, canine; conditions: for Cell viability compared with 0 J/cm^2 of light: p < 0.01; for IC50: Canis lupus familiaris, light or radiation study, 24 h, 24 h incubation, 650-nm laser 10 mW/cm^2, viability 24 h after PDT, read-out: IC50 against SNP cells
Experimental: We seeded 1 × 10^4 SNP cells into each well of 96-well plates (Corning Inc., New York, NY, USA) followed by overnight incubation. Cells were then incubated with various concentrations of G-Ce6 for 24 h at 37 °C. After washing with fresh media, the cells were irradiated with 650-nm light emitted by a semiconductor laser (Osada Electric Co., Ltd., Tokyo, Japan), using an optical fiber with a micro-lens delivery attachment (Pioneer Optics, Inc., Windsor Lock, CT, USA). PDT was performed at 10 mW/cm^2 in cells exposed to six concentrations of NPe6 and G-Ce6 (0, 0.064, 0.32, 1.6, 8.0, or 40.0 μg/mL) using four light doses (0, 1, 5, or 15 J/cm^2). The cells were then incubated for 24 h in the dark prior to examining cell viability using the Cell Counting Kit-8 (Dojindo, Kumamoto, Japan), according to the manufacturer’s instructions.

CCC1=C(C)c2cc3[nH]c(cc4nc(c(CC(=O)OC)c5[nH]c(cc1n2)c(C)c5C(=O)OC)[C@@H](CCC(=O)OC)[C@@H]4C)c(C)c3C(C)OCCCS[C@@H]1O[C@H](CO)[C@@H](O)[C@H](O)[C@H]1O (stereo partly drawn) [G-Ce6, Methyl (7S,8S)-18-ethyl-5-(2-methoxy-2-oxoethyl)-7-(3-methoxy-3-oxopropyl)-2,8,12,17-tetramethyl-13-(1-(3-(((2S,3R,4S,5S,6R)-3,4,5-trihydroxy-6-(hydroxymethyl)tetrahydro-2H-pyran-2-yl)thio)propoxy)ethyl)-7H,8H-porphyrin-3-carboxylate]
Percentage of ROS (+) cells compared with control group (SNP cells [1]; 5 J/cm^2, p < 0.01): significantly higher | Percentage of ROS (+) cells (SNP cells [1]; 15 J/cm^2): remarkably decreased | Cytotoxicity after 1 h incubation (SNP cells [2]): No cytotoxicity was observed | AUC ([3]; 5 mg/kg (n = 3)): 59700 ± 7870 ng·h/mL | Cmax ([3]; 5 mg/kg (n = 3)): 47000 ± 12200 ng/mL | clearance ([3]; 5 mg/kg (n = 3)): 1.41 mL/min/kg | half-life ([3]; 5 mg/kg (n = 3)): 2.84 ± 0.6 h | Vd ([3]; 5 mg/kg (n = 3)): 0.258 ± 0.0656 L/kg | AUC ([3]; 20 mg/kg (n = 1)): 235000 ng·h/mL | Cmax ([3]; 20 mg/kg (n = 1)): 82000 ng/mL | clearance ([3]; 20 mg/kg (n = 1)): 1.42 mL/min/kg | half-life ([3]; 20 mg/kg (n = 1)): 2.51 h | Vd ([3]; 20 mg/kg (n = 1)): 0.284 L/kg | AUC ([3]; both sexes, 2 mg/kg (n = 6)): 12000 ± 3180 ng·h/mL | Cmax ([3]; both sexes, 2 mg/kg (n = 6)): 15200 ± 4440 ng/mL | clearance ([3]; both sexes, 2 mg/kg (n = 6)): 2.93 mL/min/kg | half-life ([3]; both sexes, 2 mg/kg (n = 6)): 3.02 ± 0.58 h | Vd ([3]; both sexes, 2 mg/kg (n = 6)): 0.529 ± 0.189 L/kg | Cell viability compared with 0 J/cm^2 of light (SNP cells [4]; 1.6 μg/mL, 15 J/cm^2): significantly lower | Cell viability compared with 0 J/cm^2 of light (SNP cells [4]; 8 μg/mL, 5 J/cm^2 and 15 J/cm^2): significantly lower | Cell viability compared with 0 J/cm^2 of light (SNP cells [4]; 40 μg/mL, 1, 5, and 15 J/cm^2): significantly lower | Cell death in the absence of laser irradiation (SNP cells [4]; <40 μg/mL G-Ce6, no laser irradiation): not observed | IC50 (SNP cells [4]; light dose 1 J/cm^2): 33.4 µg/mL (≈ 37.4 µM) | IC50 (SNP cells [4]; light dose 5 J/cm^2): 10.4 µg/mL (≈ 11.6 µM) | IC50 (SNP cells [4]; light dose 15 J/cm^2): 1.7 µg/mL (≈ 1.9 µM)
